Where a SMILES comes first, the peptide text is derived from it. Bridges are numbered along the chain shown (N, C = ends). [ ]: non-standard residue; d: D form. The star is where a group is joined. Val(Nα-amidino) = CC(C)[C@H](NC(=N)N)C(=O)*; Hyp = O=C(O)[C@@H]1C[C@@H](O)CN1; Cit = NC(=O)NCCC[C@H](N)C(=O)O; Pen = CC(C)(S)[C@H](N)C(=O)O; dDab = NCC[C@@H](N)C(=O)O; Dab = NCC[C@H](N)C(=O)O
Assays:
Assay type in all cases: cell-based
[1] = system: Escherichia coli ATCC 25922; conditions: ATCC 25922
How it was run: (§1)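 MICs were determined by CLSI broth microdilution in cation-adjusted Mueller-Hinton II broth with about 5×10^5 CFU/mL inoculum. Peptides were tested in two-fold serial dilutions with 0.002% polysorbate 80 final. MIC in μg/mL is the lowest concentration with no visible growth after 18-20 h at 35 °C.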

[2] = system: Escherichia coli MCR-1 Af 45; conditions: MCR-1 Af 45
How it was run: as §1

[3] = system: Klebsiella pneumoniae SSI3010; conditions: SSI3010
How it was run: as §1

[4] = system: human red blood cells (hRBC); conditions: red cells of human, 1 h, 200 μg/mL
How it was run: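 Percent hemolysis derived from OD540 of supernatants relative to full lysis by 2.5% Triton X-100 (PBS baseline). Washed fresh human erythrocytes (20% v/v) were exposed to 200 μg/mL peptide for 1 h at 37 °C with shaking.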

Escherichia coli ATCC 25922 MIC [1] | Escherichia coli MCR-1 Af45 MIC [2] | Klebsiella pneumoniae SSI3010 MIC [3] | Compound | Hemolysis at 0.2 g/L [4]
0.125 µg/mL | 0.125 µg/mL | 0.25 µg/mL | CC[C@H](C)[C@H](NC(=O)[C@@H]1C[C@@H](O)CN1C(=O)[C@@H](NC(=N)N)C(C)C)C(=O)N[C@@H]1C(=O)N[C@@H](Cc2ccc(O)cc2)C(=O)N[C@@H]([C@@H](C)O)C(=O)N[C@@H](CC(N)=O)C(=O)N[C@@H](CCCNC(=N)N)C(=O)N[C@@H](CCN)C(=O)N[C@@H](CO)C(=O)N[C@H](CCN)C(=O)N[C@@H](CO)C(=O)N[C@@H](CCN)C(=O)N[C@@H](CCN)C(=O)N[C@H](C(=O)N[C@@H](Cc2ccc(O)cc2)C(=O)O)CSSC1(C)C [Example 82, Gua-Val-Hyp-Ile-Pen-Tyr-Thr-Asn-Arg-Dab-Ser-^DDab-Ser-Dab-Dab-Cys-Tyr] ({Val(Nα-amidino)}-[Hyp]I[Pen]YTNR[Dab]S[dDab]S[Dab][Dab]CY-OH; disulfide 3-14) | <1%
0.03125 µg/mL | 0.03125 µg/mL | 0.125 µg/mL | CC[C@H](C)[C@H](NC(=O)[C@@H]1C[C@@H](O)CN1C(=O)[C@@H](NC(=N)N)C(C)C)C(=O)N[C@H]1CCNC(=O)CC[C@@H](C(=O)N[C@@H](Cc2ccc(O)cc2)C(=O)O)NC(=O)[C@H](CCN)NC(=O)[C@H](CCN)NC(=O)[C@H](CCCCN)NC(=O)[C@@H](CCN)NC(=O)[C@H]([C@@H](C)O)NC(=O)[C@H](CCN)NC(=O)[C@H](CCCNC(=N)N)NC(=O)[C@H](CC(N)=O)NC(=O)[C@H](CO)NC(=O)[C@H](Cc2ccc(O)cc2)NC1=O [Example 83, Gua-Val-Hyp-Ile-Dab-Tyr-Ser-Asn-Arg-Dab-Thr-^DDab-Lys-Dab-Dab-Glu-Tyr] ({Val(Nα-amidino)}-[Hyp]I[Dab]YSNR[Dab]T[dDab]K[Dab][Dab]EY-OH; lactam 3-14) | <1%
0.0625 µg/mL | 0.03125 µg/mL | 0.125 µg/mL | CC[C@H](C)[C@H](NC(=O)[C@@H]1C[C@@H](O)CN1C(=O)[C@@H](NC(=N)N)C(C)C)C(=O)N[C@H]1CCNC(=O)CC[C@@H](C(=O)N[C@@H](Cc2ccc(O)cc2)C(=O)O)NC(=O)[C@H](CCN)NC(=O)[C@H](CCN)NC(=O)[C@H](CCCCN)NC(=O)[C@@H](CCN)NC(=O)[C@H](CO)NC(=O)[C@H](CCN)NC(=O)[C@H](CCCNC(=N)N)NC(=O)[C@H](CC(N)=O)NC(=O)[C@H](CO)NC(=O)[C@H](Cc2ccc(O)cc2)NC1=O [Example 84, Gua-Val-Hyp-Ile-Dab-Tyr-Ser-Asn-Arg-Dab-Ser-^DDab-Lys-Dab-Dab-Glu-Tyr] ({Val(Nα-amidino)}-[Hyp]I[Dab]YSNR[Dab]S[dDab]K[Dab][Dab]EY-OH; lactam 3-14) | <1%
0.0625 µg/mL | 0.0625 µg/mL | 0.125 µg/mL | CC[C@H](C)[C@H](NC(=O)[C@@H]1C[C@@H](O)CN1C(=O)[C@@H](NC(=N)N)C(C)C)C(=O)N[C@H]1CCNC(=O)CC[C@@H](C(=O)N[C@@H](Cc2ccc(O)cc2)C(=O)O)NC(=O)[C@H](CCN)NC(=O)[C@H](CCN)NC(=O)[C@H](CCCCN)NC(=O)[C@@H](CCN)NC(=O)[C@H]([C@@H](C)O)NC(=O)[C@H](CCN)NC(=O)[C@H](CCCNC(=N)N)NC(=O)[C@H](CC(N)=O)NC(=O)[C@H]([C@@H](C)O)NC(=O)[C@H](Cc2ccc(O)cc2)NC1=O [Example 85, Gua-Val-Hyp-Ile-Dab-Tyr-Thr-Asn-Arg-Dab-Thr-^DDab-Lys-Dab-Dab-Glu-Tyr] ({Val(Nα-amidino)}-[Hyp]I[Dab]YTNR[Dab]T[dDab]K[Dab][Dab]EY-OH; lactam 3-14) | 1%
0.03125 µg/mL | 0.03125 µg/mL | 0.0625 µg/mL | CC[C@H](C)[C@H](NC(=O)[C@@H]1C[C@@H](O)CN1C(=O)[C@@H](NC(=N)N)C(C)C)C(=O)N[C@H]1CCNC(=O)CC[C@@H](C(=O)N[C@@H](Cc2ccc(O)cc2)C(=O)O)NC(=O)[C@H](CCN)NC(=O)[C@H](CCN)NC(=O)[C@H](CCCCN)NC(=O)[C@@H](CCN)NC(=O)[C@H](CO)NC(=O)[C@H](CCN)NC(=O)[C@H](CCCNC(=N)N)NC(=O)[C@H](CC(N)=O)NC(=O)[C@H]([C@@H](C)O)NC(=O)[C@H](Cc2ccc(O)cc2)NC1=O [Example 86, Gua-Val-Hyp-Ile-Dab-Tyr-Thr-Asn-Arg-Dab-Ser-^DDab-Lys-Dab-Dab-Glu-Tyr] ({Val(Nα-amidino)}-[Hyp]I[Dab]YTNR[Dab]S[dDab]K[Dab][Dab]EY-OH; lactam 3-14) | <1%
0.125 µg/mL | 0.0625 µg/mL | 0.125 µg/mL | CC[C@H](C)[C@H](NC(=O)[C@@H]1C[C@@H](O)CN1C(=O)[C@@H](NC(=N)N)C(C)C)C(=O)N[C@H]1CCC(=O)NCC[C@@H](C(=O)N[C@@H](Cc2ccc(O)cc2)C(=O)O)NC(=O)[C@H](CCN)NC(=O)[C@H](CCN)NC(=O)[C@H](CCCCN)NC(=O)[C@@H](CCN)NC(=O)[C@H]([C@@H](C)O)NC(=O)[C@H](CCN)NC(=O)[C@H](CCCNC(=N)N)NC(=O)[C@H](CC(N)=O)NC(=O)[C@H](CO)NC(=O)[C@H](Cc2ccc(O)cc2)NC1=O [Example 87, Gua-Val-Hyp-Ile-Glu-Tyr-Ser-Asn-Arg-Dab-Thr-^DDab-Lys-Dab-Dab-Dab-Tyr] ({Val(Nα-amidino)}-[Hyp]IEYSNR[Dab]T[dDab]K[Dab][Dab][Dab]Y-OH; lactam 3-14) | <1%
0.125 µg/mL | 0.0625 µg/mL | 0.125 µg/mL | CC[C@H](C)[C@H](NC(=O)[C@@H]1C[C@@H](O)CN1C(=O)[C@@H](NC(=N)N)C(C)C)C(=O)N[C@H]1CCC(=O)NCC[C@@H](C(=O)N[C@@H](Cc2ccc(O)cc2)C(=O)O)NC(=O)[C@H](CCN)NC(=O)[C@H](CCN)NC(=O)[C@H](CCCCN)NC(=O)[C@@H](CCN)NC(=O)[C@H]([C@@H](C)O)NC(=O)[C@H](CCN)NC(=O)[C@H](CCCNC(=N)N)NC(=O)[C@H](CC(N)=O)NC(=O)[C@H]([C@@H](C)O)NC(=O)[C@H](Cc2ccc(O)cc2)NC1=O [Example 88, Gua-Val-Hyp-Ile-Glu-Tyr-Thr-Asn-Arg-Dab-Thr-^DDab-Lys-Dab-Dab-Dab-Tyr] ({Val(Nα-amidino)}-[Hyp]IEYTNR[Dab]T[dDab]K[Dab][Dab][Dab]Y-OH; lactam 3-14) | <1%
0.125 µg/mL | 0.125 µg/mL | 0.125 µg/mL | CC[C@H](C)[C@H](NC(=O)[C@@H]1C[C@@H](O)CN1C(=O)[C@@H](NC(=N)N)C(C)C)C(=O)N[C@H]1CCC(=O)NCC[C@@H](C(=O)N[C@@H](Cc2ccc(O)cc2)C(=O)O)NC(=O)[C@H](CCN)NC(=O)[C@H](CCN)NC(=O)[C@H](CCCCN)NC(=O)[C@@H](CCN)NC(=O)[C@H](CO)NC(=O)[C@H](CCN)NC(=O)[C@H](CCCNC(=N)N)NC(=O)[C@H](CC(N)=O)NC(=O)[C@H]([C@@H](C)O)NC(=O)[C@H](Cc2ccc(O)cc2)NC1=O [Example 89, Gua-Val-Hyp-Ile-Glu-Tyr-Thr-Asn-Arg-Dab-Ser-^DDab-Lys-Dab-Dab-Dab-Tyr] ({Val(Nα-amidino)}-[Hyp]IEYTNR[Dab]S[dDab]K[Dab][Dab][Dab]Y-OH; lactam 3-14) | <1%
0.25 µg/mL | 0.125 µg/mL | 0.25 µg/mL | CC[C@H](C)[C@H](NC(=O)[C@@H]1C[C@@H](O)CN1C(=O)[C@@H](NC(=N)N)C(C)C)C(=O)N[C@@H]1C(=O)N[C@@H](Cc2ccc(O)cc2)C(=O)N[C@@H](CO)C(=O)N[C@@H](CC(N)=O)C(=O)N[C@@H](CCCNC(=N)N)C(=O)N[C@@H](CCN)C(=O)N[C@@H]([C@@H](C)O)C(=O)N[C@H](CCN)C(=O)N[C@@H]([C@@H](C)O)C(=O)N[C@@H](CCN)C(=O)N[C@@H](CCN)C(=O)N[C@H](C(=O)N[C@@H](Cc2ccc(O)cc2)C(=O)O)CSSC1(C)C [Example 90, Gua-Val-Hyp-Ile-Pen-Tyr-Ser-Asn-Arg-Dab-Thr-^DDab-Thr-Dab-Dab-Cys-Tyr] ({Val(Nα-amidino)}-[Hyp]I[Pen]YSNR[Dab]T[dDab]T[Dab][Dab]CY-OH; disulfide 3-14) | <1%
0.125 µg/mL | 0.125 µg/mL | 0.25 µg/mL | CC[C@H](C)[C@H](NC(=O)[C@@H]1C[C@@H](O)CN1C(=O)[C@@H](NC(=N)N)C(C)C)C(=O)N[C@@H]1C(=O)N[C@@H](Cc2ccc(O)cc2)C(=O)N[C@@H]([C@@H](C)O)C(=O)N[C@@H](CC(N)=O)C(=O)N[C@@H](CCCNC(=N)N)C(=O)N[C@@H](CCCNC(N)=O)C(=O)N[C@@H]([C@@H](C)O)C(=O)N[C@H](CCN)C(=O)N[C@@H](CCCCN)C(=O)N[C@@H](CCN)C(=O)N[C@@H](CCN)C(=O)N[C@H](C(=O)N[C@@H](Cc2ccc(O)cc2)C(=O)O)CSSC1(C)C [Example 91, Gua-Val-Hyp-Ile-Pen-Tyr-Thr-Asn-Arg-Cit-Thr-^DDab-Lys-Dab-Dab-Cys-Y] ({Val(Nα-amidino)}-[Hyp]I[Pen]YTNR[Cit]T[dDab]K[Dab][Dab]CY-OH; disulfide 3-14) | <1%

Reference: patent US20240336654A1, “ANTIMICROBIAL PEPTIDOMIMETICS” (SPEXIS AG, priority 2021, published 2024)
